System: not listed separately
Assay: In vitro cytotoxicity by MTT assay, HEK 293
Type: cell-based, human
Conditions: human, HEK 293 cells, 0.005 μM, read-out: % cytotoxicity (100 − % cell survival) of HEK 293 cell line
Outline: (§1)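 Monolayers seeded at […] (about 10,000 per well) were treated after 24 h with the synthesized compounds and incubated three days. Viability was taken from MTT reduction, with formazan measured at 490 nm.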

**Q.** For Nc1ccc(S(=O)(=O)Nc2nnc(S(=O)(=O)NC(=O)c3ccc(Cl)cc3)s2)cc1 [Compound 7g], which cytotoxicity at 72 h, 0.005 µM is on record?
**A.** 29.1%

Same assay, conditions: human, HEK 293 cells, 0.015 μM, read-out: % cytotoxicity (100 − % cell survival) of HEK 293 cell line

**Q.** For Nc1ccc(S(=O)(=O)Nc2nnc(S(=O)(=O)NC(=O)c3ccc(Cl)cc3)s2)cc1 [Compound 7g], which cytotoxicity at 72 h, 0.015 µM is on record?
**A.** 31.2%

Same assay, conditions: human, HEK 293 cells, 0.045 μM, read-out: % cytotoxicity (100 − % cell survival) of HEK 293 cell line

**Q.** For Nc1ccc(S(=O)(=O)Nc2nnc(S(=O)(=O)NC(=O)c3ccc(Cl)cc3)s2)cc1 [Compound 7g], which cytotoxicity at 72 h, 0.045 µM is on record?
**A.** 33.3%

Same assay, conditions: human, HEK 293 cells, 0.13 μM, read-out: % cytotoxicity (100 − % cell survival) of HEK 293 cell line

**Q.** For Nc1ccc(S(=O)(=O)Nc2nnc(S(=O)(=O)NC(=O)c3ccc(Cl)cc3)s2)cc1 [Compound 7g], which cytotoxicity at 72 h, 0.13 µM is on record?
**A.** 35.1%

Same assay, conditions: human, HEK 293 cells, 0.41 μM, read-out: % cytotoxicity (100 − % cell survival) of HEK 293 cell line

**Q.** Which cytotoxicity at 72 h, 0.41 µM does the source give for Nc1ccc(S(=O)(=O)Nc2nnc(S(=O)(=O)NC(=O)c3ccc(Cl)cc3)s2)cc1 [Compound 7g] here?
**A.** 35.9%

Same assay, conditions: human, HEK 293 cells, 1.23 μM, read-out: % cytotoxicity (100 − % cell survival) of HEK 293 cell line

**Q.** For Nc1ccc(S(=O)(=O)Nc2nnc(S(=O)(=O)NC(=O)c3ccc(Cl)cc3)s2)cc1 [Compound 7g], which cytotoxicity at 72 h, 1.23 µM is on record?
**A.** 36.5%

Same assay, conditions: human, HEK 293 cells, 3.7 μM, read-out: % cytotoxicity (100 − % cell survival) of HEK 293 cell line

**Q.** For Nc1ccc(S(=O)(=O)Nc2nnc(S(=O)(=O)NC(=O)c3ccc(Cl)cc3)s2)cc1 [Compound 7g], which cytotoxicity at 72 h, 3.7 µM is on record?
**A.** 37.2%

Same assay, conditions: human, HEK 293 cells, 11.11 μM, read-out: % cytotoxicity (100 − % cell survival) of HEK 293 cell line

**Q.** Which cytotoxicity at 72 h, 11.11 µM does the source give for Nc1ccc(S(=O)(=O)Nc2nnc(S(=O)(=O)NC(=O)c3ccc(Cl)cc3)s2)cc1 [Compound 7g] here?
**A.** 38.1%

Same assay, conditions: human, HEK 293 cells, 33.33 μM, read-out: % cytotoxicity (100 − % cell survival) of HEK 293 cell line

**Q.** For Nc1ccc(S(=O)(=O)Nc2nnc(S(=O)(=O)NC(=O)c3ccc(Cl)cc3)s2)cc1 [Compound 7g], which cytotoxicity at 72 h, 33.33 µM is on record?
**A.** 40.3%

Same assay, conditions: human, HEK 293 cells, 100 μM, read-out: % cytotoxicity (100 − % cell survival) of HEK 293 cell line

**Q.** With Nc1ccc(S(=O)(=O)Nc2nnc(S(=O)(=O)NC(=O)c3ccc(Cl)cc3)s2)cc1 [Compound 7g] as the molecule, how does the cytotoxicity at 72 h, 100 µM read?
**A.** 42.9%

System: BT474 (breast cancer cell line)
Assay: In vitro cytotoxicity by MTT assay, BT474
Type: cell-based
Conditions: Homo sapiens, BT-474, 0.005 μM, 72 h, read-out: % cytotoxicity (100 − % cell survival) of BT474 cell line
Outline: as §1

**Q.** For Nc1ccc(S(=O)(=O)Nc2nnc(S(=O)(=O)NC(=O)c3ccc(Cl)cc3)s2)cc1 [Compound 7g], which cytotoxicity at 0.005 µM is on record?
**A.** 27.3%

Same assay, conditions: Homo sapiens, BT-474, 0.015 μM, 72 h, read-out: % cytotoxicity (100 − % cell survival) of BT474 cell line

**Q.** With Nc1ccc(S(=O)(=O)Nc2nnc(S(=O)(=O)NC(=O)c3ccc(Cl)cc3)s2)cc1 [Compound 7g] as the molecule, how does the cytotoxicity at 0.015 µM read?
**A.** 28.4%

Same assay, conditions: Homo sapiens, BT-474, 0.045 μM, 72 h, read-out: % cytotoxicity (100 − % cell survival) of BT474 cell line

**Q.** With Nc1ccc(S(=O)(=O)Nc2nnc(S(=O)(=O)NC(=O)c3ccc(Cl)cc3)s2)cc1 [Compound 7g] as the molecule, how does the cytotoxicity at 0.045 µM read?
**A.** 30%

Same assay, conditions: Homo sapiens, BT-474, 0.13 μM, 72 h, read-out: % cytotoxicity (100 − % cell survival) of BT474 cell line

**Q.** With Nc1ccc(S(=O)(=O)Nc2nnc(S(=O)(=O)NC(=O)c3ccc(Cl)cc3)s2)cc1 [Compound 7g] as the molecule, how does the cytotoxicity at 0.13 µM read?
**A.** 31.3%

Same assay, conditions: Homo sapiens, BT-474, 0.41 μM, 72 h, read-out: % cytotoxicity (100 − % cell survival) of BT474 cell line

**Q.** For Nc1ccc(S(=O)(=O)Nc2nnc(S(=O)(=O)NC(=O)c3ccc(Cl)cc3)s2)cc1 [Compound 7g], which cytotoxicity at 0.41 µM is on record?
**A.** 32.7%

Same assay, conditions: Homo sapiens, BT-474, 1.23 μM, 72 h, read-out: % cytotoxicity (100 − % cell survival) of BT474 cell line

**Q.** For Nc1ccc(S(=O)(=O)Nc2nnc(S(=O)(=O)NC(=O)c3ccc(Cl)cc3)s2)cc1 [Compound 7g], which cytotoxicity at 1.23 µM is on record?
**A.** 33.2%

Same assay, conditions: Homo sapiens, BT-474, 3.7 μM, 72 h, read-out: % cytotoxicity (100 − % cell survival) of BT474 cell line

**Q.** Which cytotoxicity at 3.7 µM does the source give for Nc1ccc(S(=O)(=O)Nc2nnc(S(=O)(=O)NC(=O)c3ccc(Cl)cc3)s2)cc1 [Compound 7g] here?
**A.** 34.7%

Same assay, conditions: Homo sapiens, BT-474, 11.11 μM, 72 h, read-out: % cytotoxicity (100 − % cell survival) of BT474 cell line

**Q.** With Nc1ccc(S(=O)(=O)Nc2nnc(S(=O)(=O)NC(=O)c3ccc(Cl)cc3)s2)cc1 [Compound 7g] as the molecule, how does the cytotoxicity at 11.11 µM read?
**A.** 37.7%

Same assay, conditions: Homo sapiens, BT-474, 33.33 μM, 72 h, read-out: % cytotoxicity (100 − % cell survival) of BT474 cell line

**Q.** Which cytotoxicity at 33.33 µM does the source give for Nc1ccc(S(=O)(=O)Nc2nnc(S(=O)(=O)NC(=O)c3ccc(Cl)cc3)s2)cc1 [Compound 7g] here?
**A.** 38.5%

Same assay, conditions: Homo sapiens, BT-474, 100 μM, 72 h, read-out: % cytotoxicity (100 − % cell survival) of BT474 cell line

**Q.** Which cytotoxicity at 100 µM does the source give for Nc1ccc(S(=O)(=O)Nc2nnc(S(=O)(=O)NC(=O)c3ccc(Cl)cc3)s2)cc1 [Compound 7g] here?
**A.** 40.1%

System: not listed separately
Assay: In vitro cytotoxicity by MTT assay, NCI-H226
Type: cell-based
Conditions: human, NCI-H226 lung cancer cells, 0.015 μM, read-out: % Cytotoxicity (100 − % cell survival) of NCI-H226 cell line
Outline: as §1

**Q.** For Nc1ccc(S(=O)(=O)Nc2nnc(S(=O)(=O)NC(=O)c3ccc(Cl)cc3)s2)cc1 [Compound 7g], which cytotoxicity at 72 h, 0.015 µM is on record?
**A.** 32.8%

System: NCI-H226 (lung cancer cell line)
Assay: In vitro cytotoxicity by MTT assay, NCI-H226
Type: cell-based
Conditions: Homo sapiens, NCI-H226, 0.005 μM, 72 h, read-out: % Cytotoxicity (100 − % cell survival) of NCI-H226 cell line
Outline: as §1

**Q.** For Nc1ccc(S(=O)(=O)Nc2nnc(S(=O)(=O)NC(=O)c3ccc(Cl)cc3)s2)cc1 [Compound 7g], which cytotoxicity at 0.005 µM is on record?
**A.** 30.7%

Same assay, conditions: Homo sapiens, NCI-H226, 0.045 μM, 72 h, read-out: % Cytotoxicity (100 − % cell survival) of NCI-H226 cell line

**Q.** With Nc1ccc(S(=O)(=O)Nc2nnc(S(=O)(=O)NC(=O)c3ccc(Cl)cc3)s2)cc1 [Compound 7g] as the molecule, how does the cytotoxicity at 0.045 µM read?
**A.** 33.6%

Same assay, conditions: Homo sapiens, NCI-H226, 0.13 μM, 72 h, read-out: % Cytotoxicity (100 − % cell survival) of NCI-H226 cell line

**Q.** For Nc1ccc(S(=O)(=O)Nc2nnc(S(=O)(=O)NC(=O)c3ccc(Cl)cc3)s2)cc1 [Compound 7g], which cytotoxicity at 0.13 µM is on record?
**A.** 35.3%

Same assay, conditions: Homo sapiens, NCI-H226, 0.41 μM, 72 h, read-out: % Cytotoxicity (100 − % cell survival) of NCI-H226 cell line

**Q.** Which cytotoxicity at 0.41 µM does the source give for Nc1ccc(S(=O)(=O)Nc2nnc(S(=O)(=O)NC(=O)c3ccc(Cl)cc3)s2)cc1 [Compound 7g] here?
**A.** 35.7%

Same assay, conditions: Homo sapiens, NCI-H226, 1.23 μM, 72 h, read-out: % Cytotoxicity (100 − % cell survival) of NCI-H226 cell line

**Q.** With Nc1ccc(S(=O)(=O)Nc2nnc(S(=O)(=O)NC(=O)c3ccc(Cl)cc3)s2)cc1 [Compound 7g] as the molecule, how does the cytotoxicity at 1.23 µM read?
**A.** 36.1%

Same assay, conditions: Homo sapiens, NCI-H226, 3.7 μM, 72 h, read-out: % Cytotoxicity (100 − % cell survival) of NCI-H226 cell line

**Q.** For Nc1ccc(S(=O)(=O)Nc2nnc(S(=O)(=O)NC(=O)c3ccc(Cl)cc3)s2)cc1 [Compound 7g], which cytotoxicity at 3.7 µM is on record?
**A.** 36.3%

Same assay, conditions: Homo sapiens, NCI-H226, 11.11 μM, 72 h, read-out: % Cytotoxicity (100 − % cell survival) of NCI-H226 cell line

**Q.** With Nc1ccc(S(=O)(=O)Nc2nnc(S(=O)(=O)NC(=O)c3ccc(Cl)cc3)s2)cc1 [Compound 7g] as the molecule, how does the cytotoxicity at 11.11 µM read?
**A.** 37.1%

Same assay, conditions: Homo sapiens, NCI-H226, 33.33 μM, 72 h, read-out: % Cytotoxicity (100 − % cell survival) of NCI-H226 cell line

**Q.** Which cytotoxicity at 33.33 µM does the source give for Nc1ccc(S(=O)(=O)Nc2nnc(S(=O)(=O)NC(=O)c3ccc(Cl)cc3)s2)cc1 [Compound 7g] here?
**A.** 38.7%

Same assay, conditions: Homo sapiens, NCI-H226, 100 μM, 72 h, read-out: % Cytotoxicity (100 − % cell survival) of NCI-H226 cell line

**Q.** Which cytotoxicity at 100 µM does the source give for Nc1ccc(S(=O)(=O)Nc2nnc(S(=O)(=O)NC(=O)c3ccc(Cl)cc3)s2)cc1 [Compound 7g] here?
**A.** 39%

From PMC3973950, “Synthesis of 5-arylidine amino-1,3,4-thiadiazol-2-[(N-substituted benzyol)]sulphonamides endowed with potent antioxidants and anticancer activity induces growth inhibition in HEK293, BT474 and NCI-H226 cells” (Medicinal Chemistry Research, 2013)
